Source: patent publication US20100240748A1, “TETRAHYDRONAPHTHALEN-2-OL DERIVATIVES” (N. V. Organon, priority 2009, published 2010)

What was measured:
[1] = molecular target: human estrogen receptor β (hERβ) (Homo sapiens, UniProt Q92731); assay: ERβ transactivation bioassay in recombinant CHO cells (hERβ, rat oxytocin promoter, luciferase reporter); type: cell-based; conditions: for ERβ/ERα ratio: ERβ agonistic selectivity over ERα, transactivation data; for EC50: transactivation of luciferase in CHO cells co-transfected with hERβ, read-out: ERβ agonistic EC50
Description: (§1) The estrogenic and antiestrogenic activity of compounds was determined in an in vitro bioassay with recombinant Chinese hamster ovary (CHO) cells stably co-transfected with the human estrogen receptor α (hERα) or β receptor (hERβ), the rat oxytocin promoter (RO) and the luciferase reporter gene (LUC). The estrogenic activity of a test compound to stimulate the transactivation of the enzyme luciferase mediated via the estrogen receptors hERα or hERβ is expressed in nM. The assay was performed as described by De Gooyer et al., Steroids 68 (2003), 21-30.

[2] = metabolic stability in human hepatocytes; type: in vitro ADME; conditions: human, cryopreserved human hepatocytes (suspension); tetrahydronaphthalen-2-ol; 37° C., sampled 0-120 min, LC-MS/MS; read-out: Human hepatocyte T 1/2
Description: (§2) A number of compounds 9, 11 and 12 were tested on metabolic stability in human hepatocytes. The hepatic stability was compared to corresponding chroman compounds 25, 26 or 27 (see structures below).
(§3) Test compounds were diluted to 3 μM in incubation medium. Then 40 μl of the 3 μM test compounds was pipetted into a 96 well microtiter plate (flat bottom). Hepatocytes (stored at −140° C.) were thawed in a 37° C. water bath. The cells were resuspended into pre-warmed thawing medium and were centrifuged for 5 minutes at 50 g at room temperature. The supernatant was discarded and the remaining cell pellet was resuspended in warm incubation medium and diluted to 7.5 E5 cells/ml. Then 80 μl of the cell suspension was added to each well of the 96 well microtiter plate containing the test compounds. The resulting mixture was incubated at 37° C. and was sampled at t=0, 5, 30, 60, and 120 min. The samples were analyzed by LC-MS/MS to determine the content of unchanged test compound. Based on the rate of reduction of the content of test compound over time, the half-live (T½) was calculated.

[3] = molecular target: T1, human estrogen receptor α (hERα) (Homo sapiens, UniProt P03372); assay: ERα transactivation bioassay in recombinant CHO cells (hERα, rat oxytocin promoter, luciferase reporter); type: cell-based; conditions: ratio of activities of eutomer and distomer on ERα
T1 sequence (P03372 1-595): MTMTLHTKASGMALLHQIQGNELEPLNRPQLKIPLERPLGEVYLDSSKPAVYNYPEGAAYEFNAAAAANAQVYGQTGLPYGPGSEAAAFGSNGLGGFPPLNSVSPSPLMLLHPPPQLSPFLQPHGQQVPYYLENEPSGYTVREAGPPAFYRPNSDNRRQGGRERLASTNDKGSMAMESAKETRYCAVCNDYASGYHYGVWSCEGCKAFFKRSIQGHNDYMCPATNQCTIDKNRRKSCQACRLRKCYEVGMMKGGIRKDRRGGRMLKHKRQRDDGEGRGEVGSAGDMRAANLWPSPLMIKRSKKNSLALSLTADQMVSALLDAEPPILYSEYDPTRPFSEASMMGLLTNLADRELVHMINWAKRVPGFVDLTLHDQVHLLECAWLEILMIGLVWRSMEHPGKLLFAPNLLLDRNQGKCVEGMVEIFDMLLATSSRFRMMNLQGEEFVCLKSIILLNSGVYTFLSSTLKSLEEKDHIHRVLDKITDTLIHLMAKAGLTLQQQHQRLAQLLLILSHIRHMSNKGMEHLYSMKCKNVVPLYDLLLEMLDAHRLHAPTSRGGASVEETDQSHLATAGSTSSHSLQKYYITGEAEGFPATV
Description: as §1

human hepatocytes = assay: metabolic stability in human hepatocytes; type: in vitro ADME; conditions: tetrahydronaphthalen-2-ol; 37° C., sampled 0-120 min, LC-MS/MS
Description: as §2, §3

[4] = test system: acinar epithelium of the ventral prostate; assay: short-term prostate apoptosis and proliferation model in castrated rats; type: in vivo, rat
Description: Selected compounds were tested in a short-term prostate apoptosis and proliferation model in castrated rats.
Intact mature male Wistar rats (350-400 g) were castrated and left to recover for 1 week. 7 days after the castration rats received a single subcutaneous injection of testosterone buciclate (TB), a long-acting testosterone ester, in arachis oil (20 mg/kg) with a volume of 1 ml/kg and were subsequently treated once daily orally for 3 days with the test substance at doses between 0 and 1000 μg/kg, dissolved in gelatin/mannitol and dosed with a volume of 1 ml/kg.
At the end of the experiment rats were euthanized, the prostates were removed, weighed and processed for histology.
Apoptosis of the acinar epithelium of the ventral prostate was determined with TUNEL ([…]) staining. Apoptotic cells show nuclear DNA fragmentation and the TUNEL assay end-labels the fragmented DNA by incorporating biotinylated dUTP at the 3′-OH DNA ends using the enzyme Terminal deoxynucleotidyl Transferase (TdT). Positively stained cells are counted per acinus (glandular unit) in the ventral prostate. Proliferation of the acinar epithelium of the ventral prostate was determined by immunohistochemical staining with an antibody directed against Ki67 (clone Mib5). Positively stained cells are counted per acinus (glandular unit) in the ventral prostate. Statistical significance is determined as compared to TB alone by one-way ANOVA.

Chain of human estrogen receptor β (hERβ) (Q92731 whole entry): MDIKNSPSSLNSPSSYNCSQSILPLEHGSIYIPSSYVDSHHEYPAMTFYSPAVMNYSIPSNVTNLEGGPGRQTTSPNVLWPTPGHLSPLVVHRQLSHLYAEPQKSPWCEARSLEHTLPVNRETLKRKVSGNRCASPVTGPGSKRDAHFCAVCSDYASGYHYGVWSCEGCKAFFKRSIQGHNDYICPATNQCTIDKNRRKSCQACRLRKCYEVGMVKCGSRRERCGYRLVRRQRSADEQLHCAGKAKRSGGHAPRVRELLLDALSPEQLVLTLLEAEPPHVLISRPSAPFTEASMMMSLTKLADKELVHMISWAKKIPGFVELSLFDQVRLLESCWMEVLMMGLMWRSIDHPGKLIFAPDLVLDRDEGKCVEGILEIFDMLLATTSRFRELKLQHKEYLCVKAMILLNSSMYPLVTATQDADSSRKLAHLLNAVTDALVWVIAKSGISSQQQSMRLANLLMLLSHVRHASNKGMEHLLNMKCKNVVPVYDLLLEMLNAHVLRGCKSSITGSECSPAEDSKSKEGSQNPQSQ

| Molecule | ERβ/ERα ratio [1] | EC50 [1] | half-life at 1 µM [2] | further results |
| --- | --- | --- | --- | --- |
| CCC1C(c2ccc(O)c(F)c2)Cc2ccc(O)cc2C1Cc1ccccc1F (racemic) [Compound 9q, 7-ethyl-6-(3-fluoro-4-hydroxyphenyl)-8-(2-fluorobenzyl)-5,6,7,8-tetrahydronaphthalen-2-ol] | >67 | 1.5 nM |  |  |
| C[C@H]1[C@@H](c2ccc(O)cc2)Cc2ccc(O)cc2[C@H]1Cc1c(F)cccc1F (single isomer, unassigned) [Compound 11i] |  |  | 29.4 min |  |
| (6S,7S,8S)-7-ethyl-6-(3- fluoro-4-hydroxyphenyl)- 8-(2-fluorobenzy1)-5,6, 7,8-tetrahydro- naphthalen-2-ol [Compound 11q] | >169 | 0.59 nM |  | ERβ eudismic ratio ([1]; ratio of activities of eutomer and distomer on ERβ): 7; ERα eudismic ratio [3]: <0.3; Human hepatocyte T 1/2 (human hepatocytes): 82.2 min |
| C[C@H]1[C@@H](c2ccc(O)cc2)Cc2ccc(O)cc2[C@H]1Cc1ccccc1F (single isomer, unassigned) [Compound 11a] |  |  |  | epithelial cell proliferation ([4]; at 3 μg/kg, Ki67 staining, compared to TB-alone treated rats): decrease in epithelial cell proliferation; minimal active dose (MAD), increase in epithelial cell apoptosis ([4]; castrated Wistar rats with testosterone buciclate, once daily orally for 3 days, TUNEL staining, ventral prostate): 3 µg/kg; epithelial cell apoptosis ([4]; castrated rats, TUNEL staining, compared to TB alone, one-way ANOVA): statistically significant (p<0.01) increase in epithelial cell apoptosis |
| CC[C@@H]1[C@H](c2ccc(O)c(F)c2)Cc2ccc(O)cc2[C@@H]1Cc1ccccc1F (single isomer, unassigned) [Compound 12q] |  |  | > 120 min |  |
| C[C@@H]1[C@H](c2ccc(O)cc2)Cc2ccc(O)cc2[C@@H]1Cc1c(F)cccc1F (single isomer, unassigned) [Compound 12i] |  |  | 33.7 min |  |
